# Assay results taken from patent publication US20210070730A1, “H2S-BASED THERAPEUTIC AGENTS FOR THE TREATMENT OF NEURODEGENERATIVE DISEASES” (INTERNATIONAL SOCIETY FOR DRUG DEVELOPMENT S.R.L., priority 2017, published 2021).
# Read-outs that look alike come from different tables or passages of the source. Marks after values point to notes of the source that are not given here.
# How the values were obtained:
# NMDAR = assay: Displacement of specific [3H]MK-801 binding in rat cortex membranes
# Protocol: [^3H]MK-801 Binding Assay. Crude synaptic membranes were prepared from the cerebral cortex of Sprague-Dawley rats. The pellets were stored at −80° C. for at least 24 h, and washed three more times with Tris-HEPES buffer (Tris 4.5 mM, HEPES 5 mM, pH 7.4) to remove the endogenous amino acids before the binding assay. In the binding assay, 50 μL of membrane preparation (40-50 μg protein), and 10 μL of compound were mixed at 25° C. in the presence of […] L-glutamate (10 μM) and 50 μL of glycine (10 μM). Then, 50 μl of [^3H]MK-801 (final concentration 3 nM) were added to the preparation. Tris-HEPES buffer was added to a final volume of 0.5 mL. Following incubation time of 2 h at 25° C., binding was terminated by filtration […]. Radioactivity was measured using a PerkinElmer liquid scintillation counter. Nonspecific binding was determined in the presence of unlabeled 100 μM MK-801. […] For compound activity determination, aliquots of membrane pellets were incubated with different ligand concentrations of MT66 and reference drug (10 nM-10 μM) in the absence of presence of 4 mM Cysteine for 30 min, and then incubated with 3 nM [^3H]MK-801 for 2 h at 25° C. Samples were then filtered, and the radioactivity was counted.
# Displacement of specific [^3H]MK-801 binding in rat cortex membranes in the absence or presence of cysteine (Cys). MT66 was tested to assess its abilities to inhibit native-target activity (i.e. NMDAR). Binding to specific receptors (such as NMDAR) has been assessed using the assay based on the displacement of [^3H]MK-801 [19]. The evaluation has been performed in the presence and in absence of Cys.
# U87MG cells = assay: Western blot of autophagy markers in U87MG cells; assay type: cell-based, human; conditions: 10 μM; for LC3II expression (LC3II/LC3I ratio) / p62 expression / p-mTOR expression (p-mTOR/mTOR ratio): 4 h; for LC3II expression: 24 h
# Protocol: FIG. 6. Western blot quantification of LC3II/LC3I ratio, p62, mTOR and Akt as hallmarks of the degree of ATG activation. […] (D) Western blot quantification of pAkt/Akt ratio in U87MG cells. Results represent mean±SEM of three different gels. *P<0.05, **P<0.01, ***P<0.001 versus vehicle treated cells (Control).
# Western blot analysis. The human U-87MG cells were seeded in 6-well plates in a final volume of 2 ml/well at a density of 1×10^6/well and grown to 80% of confluence with standard medium (DMEM-High Glucose). Cells were treated with vehicle (0.1% DMSO) or test compounds (i.e. 10 μM Memantine or Memit and (1 μM) Rapamycin and incubated at 37° C. for 4 and 24 h. Treated cells were washed twice with PBS and lysed in Tris-buffered saline buffer-1% Triton-X100; NaCl 150 mM; Tris-HCl 20 mM; EDTA 1 mM; EGTA 1 mM; NaF 20 mM; Na4P2O7 25 mM; Na3VO4 1 mM; PMSF 1 mM; 8 μ/ml protein cocktail inhibitors (Sigma-Aldrich, Milan, Italy). Proteins (30-40 μg) were separated on Criterion TGX™ gel (4-20%) and transferred on Immuno-PVDF membrane (Bio-Rad, Milan, Italy) for 1 h. Blots were incubated for 12 h with diluted primary antibody [1:1000, LC3A/B; p62; mTOR, p-mTOR; Akt, p-Akt(Ser 473); β-actin, Cell Signaling] in 5% w/v BSA, 1× TBS and 0.1% Tween 20 at 4° C. under gentle shaking. Then, blots were washed three times for 10 min with 1× TBS, 0.1% Tween 20 and incubated for 1 h with secondary antibody (peroxidase-coupled anti rabbit in 1× TBS, 0.1% Tween 20). […] Band densitometric analysis was performed using Image Lab Software (Bio-Rad, Milan, Italy).
# Evaluation of proautophagic activity: Expression of protein LC3-II, p62, and m-TOR, indicators of autophagy, were detected by western blotting, using Rapamycin as a positive control. In U87MG cell lines.
# Rat microglia cells = assay: Microglia protection from Aβ(1-42) induced injury (MTS assay); assay type: cell-based; conditions: 10 μM pre-treatment 24 h, then Aβ1-42 24 h
# Protocol: FIG. 7. Rat microglia cells were pre-treated with the compounds (10 μM) for 24 h. After washing, the cells were incubated with Aβ1-42 for 24 h. At the end of treatments, cell proliferation was measured by MTS assay. The data are expressed as percentages relative to untreated cells (control), which were set at 100%, and represent the mean±SEM of three independent experiments, each performed in triplicate. Statistical significance was determined using a one-way ANOVA followed by a Bonferroni post-test: *p<0.05 vs control; #p<0.05 vs cells treated with Aβ1-42.
# Cell proliferation/viability assays on rat microglia cells. Rat microglia cells were isolated from mixed cell culture obtained from Sprague-Dawley rat cortex, by gentle physical shaking, as described. After isolation, cells were seeded into 96 well-plated with fresh culture media and pretreated with MT66 or native drug (10 μM) for 24 h; before washing and incubation with Aβ1-42 for 24 h. Following incubation time, cell viability was determined using the MTS assay. The absorbance of formazan was measured at […]. The results were calculated by subtracting the mean background from the values obtained from each test condition and were expressed as the percentage of the control (untreated cells).
# Microglia protection from Aβ(1-42) induced injury. Microglia, together with astrocytes, forms the main active immune defense of the CNS. […]
# [1] = Amperometric determination of H2S release; assay type: physicochemical; conditions: assay buffer, absence or presence of L-cysteine
# Protocol: FIG. 1: Curves describe the increase of H2S concentration, with respect to time, following the incubation of GYY 4137, the H2S-prodrug MT66 in the assay buffer, in the absence (white symbol) or in the presence of L-cysteine (black symbol) or glutathione (black triangles). H2S was recorded by amperometry; the vertical bars indicate the SEM.
# Amperometric Determination of H2S: The characterization of the H2S-generating properties of the new compounds was carried out by amperometric approaches through an Apollo-4000 Free Radical Analyzer (WPI) detector and H2S-selective minielectrodes. The procedure has been recently reported by us.
# The H2S-releasing properties were evaluated both in the absence or in the presence of an organic thiol such as L-cysteine.
# [2] = system: Human neuronal-like cells; assay: Neuroprotection in LPS/TNF-α challenged neuronal-like cells (MTS assay); assay type: cell-based; conditions: 10 μM pre-treatment 24 or 72 h, then 50 μg/ml LPS and 50 ng/ml TNF-α 16 h
# Protocol: FIG. 2: Neuroprotective effects. Human neuronal-like cells were treated with medium alone (CONTROL) or with the compounds (10 μM) for 24 h (light grey) or 72 h(dark grey); after drug removal, cells were incubated with 50 μg/ml LPS and 50 ng/ml TNF-α for an additional 16 h. At the end of treatment, cell proliferation was measured by MTS assay. The data are expressed as percentages relative to untreated cells (control), which were set at 100%, and represent the mean±SEM of three independent experiments, each performed in triplicate. Statistical significance was determined using a one-way ANOVA-Tukey HSD post hoc test: *P<0.05, ***P<0.001 vs. control; ##P<0.01, ###P<0.001 vs. cells treated with LPS-TNF-α.
# Cell proliferation/viability assays: Following incubation time, cell viability was determined using the MTS assay according to the manufacturer's instruction. […] The absorbance of formazan at […] was measured in a colorimetric assay with an automated plate reader. The results were calculated by subtracting the mean background from the values obtained from each test condition, and are expressed as the percentage of the control (untreated cells).
# Evaluation of neuroprotective effects. […] The effects of H2S prodrug under physiological conditions and under inflammatory stress exposure were assessed by measuring cellular viability.
# [3] = system: Human neuronal-like cells; assay: ROS production in LPS/TNF-α challenged neuronal-like cells (DCFH2-DA); assay type: cell-based; conditions: 10 μM pre-treatment 24 h, then LPS and TNF-α 16 h
# Protocol: FIG. 3. Effects induced on ROS production. Human neuronal-like cells were treated with medium alone (CONTROL) or the compound (10 μM) for 24 h; after drug removal, cells were incubated with 50 μg/ml LPS and 50 ng/ml TNF-α for an additional 16 h. At the end of treatment, ROS production was measured using the fluorogenic probe DCFH2-DA. The data are expressed as percentages relative to untreated cells (control), which were set at 100%, and represent the mean±SEM of two independent experiments, each performed in triplicate. Statistical significance was determined using a one-way ANOVA-Tukey HSD post hoc test: ***P<0.001 vs. control; ###P<0.001 vs. cells treated with LPS-TNF-α.
# Mitochondria ROS generation: The generation of ROS was assessed by the fluorogenic probe DCFH2-DA (Molecular Probes, Invitrogen) in Neuronal-like cells, differentiated from H9-derived NSCs.). […] This nonfluorescent molecule is readily converted to a green-fluorescent form […] when the acetate group is removed by intracellular esterases and an oxidation by ROS occurs within the cell. […] Fluorescence increase was estimated in a plate reader at 485 nm (excitation) and 520 nm (emission) (Wallac, Victor 2, 1420 multilabel counter, PerkinElmer). The fluorescence values were normalized between samples for cell number content and assessed by a crystal violet cell staining assay. […]
# [4] = system: Aβ(1-40) self-induced aggregation; assay: Thioflavin T fluorescence assay of Aβ aggregation; assay type: cell-based; conditions: 10 μM pre-treatment 24 h, ThT fluorescence
# Protocol: The Thioflavin T fluorescence assay. Thioflavin T (ThT) dye fluorescence was used to quantify the formation and inhibition of amyloid oligomers in the presence of anti-amyloidogenic compounds. The ThT stock solution was prepared by adding 8 mg ThT to 10 mL phosphate buffer (10 mM phosphate, 150 mM NaCl, pH 7.0) and filter through a 0.2 μm syringe filter. This stock solution should be stored in the dark and is stable for about one week. On the day of the analysis, the stock solution was diluted into PBS to obtain the concentration of 10 μM. The Aβ1-42 oligomers were prepared by diluting the stock solution in PBS and the dilution was shaking for 48 hours at 37° C. The cells were seeded in black 96-multiwell plate (3000 c/w) and treated with the compound MT66 and reference drug (10 μM) for 24 h. Following incubation time, cells were washed and incubated with Aβ1-42 oligomers for 24 h. After this time, 200 μl of ThT 10 μM were added to each well in the dark. The ThT fluorescence intensity of each sample was recorded every 5 min using a spectrophotometer by excitation at 355 nm and emission 535 nm.
# Inhibition of Aβ(1-40) self-induced aggregation. The new compound was also tested to evaluate their ability to inhibit the Aβ(1-40) self-induced aggregation.
# [5] = presence of 4 mM cysteine, 30 min preincubation, read-out: Ki, nM (+Cys 4 mM, 30 min)
SMILES,"Ki (NMDAR; absence of cysteine, 3 nM [3H]MK-801, rat cortex membranes, read-out: Ki, nM (−Cys)) [nM]",Ki (NMDAR; [5]) [nM],LC3II expression (LC3II/LC3I ratio) (U87MG cells),p62 expression (U87MG cells),p-mTOR expression (p-mTOR/mTOR ratio) (U87MG cells),LC3II expression (U87MG cells),cell proliferation after Aβ1-42 oligomers (Rat microglia cells),H2S-releasing properties [1],"Kd (NMDAR; rat cortex membranes, read-out: dissociation constant (Kd) of [3H]MK-801) [nM]","Percentage of inhibition of specific [3H]MK-801 binding (−Cys) (NMDAR; absence of cysteine, concentration not given) [% ^b]",cell proliferation/viability after inflammatory insult [2],ROS accumulation under inflammatory conditions [3],Aβ(1-40) self-induced aggregation [4]
"CC12CC3CC(C)(C1)CC(N)(C3)C2 [Memantine, reference compound]",955 ± 74.2,329 ± 10.9,significant up-regulation,decreased expressions,decreased expressions,remained almost unchanged,completely restore cell proliferation,,,,,,
"C1COCCN1.COc1ccc(P(=S)(S)N2CCOCC2)cc1 (centres unmarked) [GYY4137, reference compound]",,,,,,,,slow H2S-releasing,,,,,
CC12NC(Cc3ccccc31)c1ccccc12 (centres unmarked) [[^3H]MK-801],,,,,,,,,4,,,,
CC12CC3CC(C)(C1)CC(N=C=S)(C3)C2 [MT66],,458 ± 77.7,significant up-regulation,decreased expressions,decreased expressions,remained almost unchanged,completely restore cell proliferation,slow and L-cysteine-dependent H2S-releasing mechanism,,28.0,exhibited neuroprotective effects during inflammation,almost completely counteracted inflammatory-mediated effects,induces a reduction
